Source: PubChem BioAssay (NCI)
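Interpolation was linear, between the two tested concentrations surrounding the appropriate level; five concentrations were tested over 48 hours in 96-well plates. GI50 = concentration required for 50% inhibition of growth. TGI is the concentration that stops growth completely.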

Key:
Test in all cases: DTP human tumour cell line panel, 48 h; in the data active = GI50 below about 0.43 µM; inactive = the rest
[1] = system: HCC-2998 colon
[2] = system: OVCAR-3 ovarian
[3] = system: OVCAR-4 ovarian
[4] = system: ACHN renal
[5] = system: UO-31 renal
[6] = system: SNB-75 CNS
[7] = system: DU-145 prostate
[8] = system: UACC-62 melanoma
[9] = system: HCT-116 colon
[10] = system: MALME-3M melanoma
[11] = system: PC-3 prostate
[12] = system: UACC-257 melanoma
[13] = system: NCI-H23 lung
[14] = system: RPMI-8226 leukemia
[15] = system: SNB-19 CNS
[16] = system: U251 CNS
[17] = system: 786-0 renal
[18] = system: NCI-H460 lung
[19] = system: M14 melanoma
[20] = system: SF-268 CNS
[21] = system: CCRF-CEM leukemia
[22] = system: SK-MEL-5 melanoma
[23] = system: SN12C renal
[24] = system: SK-OV-3 ovarian
[25] = system: COLO 205 colon
[26] = system: A498 renal
[27] = system: SK-MEL-2 melanoma
[28] = system: SF-295 CNS
[29] = system: RXF 393 renal
[30] = system: HS 578T breast
[31] = system: MDA-MB-231 breast
[32] = system: TK-10 renal
[33] = system: T-47D breast
[34] = system: NCI-H226 lung
[35] = system: CAKI-1 renal
[36] = system: OVCAR-5 ovarian
[37] = system: BT-549 breast
[38] = system: K-562 leukemia
[39] = system: HL-60(TB) leukemia
[40] = system: MOLT-4 leukemia
[41] = system: KM12 colon
[42] = system: SW-620 colon
[43] = system: HOP-62 NSCLC
[44] = system: SK-MEL-28 melanoma
[45] = system: NCI/ADR-RES ovarian
[46] = system: MDA-MB-435
[47] = system: SF-539 CNS
[48] = system: EKVX NSCLC
[49] = system: HT29 colon
[50] = system: HCT-15 colon
[51] = system: MCF7 breast
[52] = system: OVCAR-8 ovarian

CCn1cc(C(=O)O)c(=O)c2cc(F)c(N3CCN(S(=O)(=O)c4ccc(Cl)cc4)CC3)cc21
14.3 µM: TGI [33]
9.23 µM: TGI [24]
8.22 µM: TGI [11]
7.06 µM: TGI [35]
11.8 µM: TGI [28]
> 100 µM: TGI [1] | TGI [2] | TGI [7] | TGI [9] | TGI [14] | TGI [15] | TGI [16] | TGI [17] | TGI [18] | TGI [19] | TGI [20] | TGI [21] | TGI [23] | TGI [29] | TGI [30] | TGI [31] | TGI [32] | TGI [34] | TGI [36] | TGI [38] | TGI [40] | TGI [41] | TGI [42] | TGI [43] | TGI [44] | TGI [47] | TGI [50] | TGI [51] | TGI [52]
7.44 µM: TGI [8]
8.99 µM: TGI [45]
7.27 µM: TGI [37]
7.55 µM: TGI [46]
7.66 µM: TGI [5]
inactive: GI50 [1] 4.1 µM | GI50 [2] 3.51 µM | GI50 [3] 2.2 µM | GI50 [4] 3.09 µM | GI50 [5] 2.07 µM | GI50 [6] 2.6 µM | GI50 [7] 4.11 µM | GI50 [8] 2.02 µM | GI50 [9] 3.18 µM | GI50 [10] 1.99 µM | GI50 [11] 2.31 µM | GI50 [12] 2.16 µM | GI50 [13] 2.67 µM | GI50 [14] 3.08 µM | GI50 [15] 3.97 µM | GI50 [16] 3.1 µM | GI50 [17] 3.77 µM | GI50 [18] 3.16 µM | GI50 [19] 2.85 µM | GI50 [20] 3.85 µM | GI50 [21] 2.93 µM | GI50 [22] 1.8 µM | GI50 [23] 2.92 µM | GI50 [24] 3.28 µM | GI50 [25] 2.62 µM | GI50 [26] 1.81 µM | GI50 [27] 2.57 µM | GI50 [28] 3.78 µM | GI50 [29] 3.32 µM | GI50 [30] 4.52 µM | GI50 [31] 2.51 µM | GI50 [32] 3.73 µM | GI50 [33] 3.2 µM | GI50 [34] 3.02 µM | GI50 [35] 2.75 µM | GI50 [36] 4.25 µM | GI50 [37] 2.44 µM | GI50 [38] 2.91 µM | GI50 [39] 2.18 µM | GI50 [40] 3.83 µM | GI50 [41] 4.07 µM | GI50 [42] 3.43 µM | GI50 [43] 4.47 µM | GI50 [44] 4.88 µM | GI50 [45] 2.98 µM | GI50 [46] 2.47 µM | GI50 [47] 4.12 µM | GI50 [48] 2.25 µM | GI50 [49] 2.64 µM | GI50 [50] 3.62 µM | GI50 [51] 2.98 µM | GI50 [52] 2.8 µM
5.84 µM: TGI [25]
9.87 µM: TGI [4]
5.67 µM: TGI [27]
3.51 µM: TGI [22]
4.81 µM: TGI [39]
6.21 µM: TGI [49]
9.89 µM: TGI [48]
5.25 µM: TGI [10]
9.81 µM: TGI [6]
7.47 µM: TGI [26]
5.5 µM: TGI [12]
7.15 µM: TGI [13]
7.57 µM: TGI [3]
